# Assay results as given in article PMC10813692 (2024).
# Columns and labels:
# [1] = test system: LxC (RNA, aptamer) GGGCAACUCCAAGCUAGAUCUACCGGUUUGGGUAGUGCGAUUCGCACUGAAUGCCGCGUAGGCUUCGCUACUGGCUUCUACUACGUACCCAAAAUGGCUAGCAAAGGAGAAGAACUUUUCACU; test: elution from immobilised Capture-ON; conditions: 0.25 mM K+, 20 mM Na+, 5 mM Mg2+, 1x CSB (40 mM HEPES pH 7.4), DNA Capture-ON displaced
# [2] = test system: LxB1 (RNA, aptamer) GGGCAACUCCAAGCUAGAUCUACCGGUGUGUAACGGAAGCACAAAGGUGCCUCCUACAGCAGGUCUUCUACUGGCUUCUACUGAUACACUAAAAUGGCUAGCAAAGGAGAAGAACUUUUCACU; test: elution from immobilised Capture-ON; conditions: 0.25 mM K+, 20 mM Na+, 5 mM Mg2+, 1x CSB (40 mM HEPES pH 7.4), DNA Capture-ON displaced
# [3] = test system: LxB2 (RNA, aptamer) GGGCAACUCCAAGCUAGAUCUACCGGUGUGUAACGGAAGCACAAAGGUGCCUCCUACAGCAGGUCUUCUACUGGCUUCUACUGAUACGCUAAAAUGGCUAGCAAAGGAGAAGAACUUUUCACU; test: elution from immobilised Capture-ON; conditions: 0.25 mM K+, 20 mM Na+, 5 mM Mg2+, 1x CSB (40 mM HEPES pH 7.4), DNA Capture-ON displaced
# [4] = test system: LxD (RNA, aptamer) GGGCAACUCCAAGCUAGAUCUACCGGUCUAGUGCCUCAACUAGCCGAACCGUGGUCGUCUUCAUGCCUACUGGCUUCUACGAGAUAAAUAAAAUGGCUAGCAAAGGAGAAGAACUUUUCACU; test: elution from immobilised Capture-ON; conditions: 0.25 mM K+, 20 mM Na+, 5 mM Mg2+, 1x CSB (40 mM HEPES pH 7.4), DNA Capture-ON displaced
# [5] = test system: LxCsh (RNA, aptamer) GGGUUUGGGUAGUGCGAUUCGCACUGAAUGCCGCGUAGGCUUCGCUACUGGCUUCUACUACGUACCCAAACCC; test: lateral flow assay, Capture-ON displacement; conditions: 0.25 mM K+, 20 mM Na+, 5 mM Mg2+, 1x CSB (40 mM HEPES pH 7.4), room temperature, 6FAM Capture-ON displaced
# [6] = test system: LxC (RNA, aptamer) GGGCAACUCCAAGCUAGAUCUACCGGUUUGGGUAGUGCGAUUCGCACUGAAUGCCGCGUAGGCUUCGCUACUGGCUUCUACUACGUACCCAAAAUGGCUAGCAAAGGAGAAGAACUUUUCACU; test: ITC; conditions: 0.25 mM K+, 20 mM Na+, 5 mM Mg2+; 1x CSB (40 mM HEPES pH 7.4), 25 °C; 30 µM RNA, 500 µM LFX; one-site model
# [7] = test system: LxCsh (RNA, aptamer) GGGUUUGGGUAGUGCGAUUCGCACUGAAUGCCGCGUAGGCUUCGCUACUGGCUUCUACUACGUACCCAAACCC; test: ITC; conditions: 0.25 mM K+, 20 mM Na+, 5 mM Mg2+; 1x CSB (40 mM HEPES pH 7.4), 25 °C; 30 µM RNA, 500 µM LFX; one-site model
# [8] = test system: M1 (RNA, aptamer) GGGUAUGGGUAGUGCGAUUCGCACUGAAUGCCGCGUAGGCUUCGCUACUGGCUUCUACUACGUACCCAUACCC; test: ITC; conditions: 0.25 mM K+, 20 mM Na+, 5 mM Mg2+; 1x CSB (40 mM HEPES pH 7.4), 25 °C; 30 µM RNA, 500 µM LFX; one-site model
# [9] = test system: M2 (RNA, aptamer) GGGUUUGCGUAGUGCGAUUCGCACUGAAUGCCGCGUAGGCUUCGCUACUGGCUUCUACUACGUACGCAAACCC; test: ITC; conditions: 0.25 mM K+, 20 mM Na+, 5 mM Mg2+; 1x CSB (40 mM HEPES pH 7.4), 25 °C; 30 µM RNA, 500 µM LFX; one-site model
# [10] = test system: M8 (RNA, aptamer) GGGUUUGGGUAGUCGAUUCGACUGAAUGCCGCGUAGGCUUCGCUACUGGCUUCUACUACGUACCCAAACCC; test: ITC; conditions: 0.25 mM K+, 20 mM Na+, 5 mM Mg2+; 1x CSB (40 mM HEPES pH 7.4), 25 °C; 30 µM RNA, 500 µM LFX; one-site model
# [11] = test system: M9 (RNA, aptamer) GGGUUUGGGUAGUCGUUCGCGACUGAAUGCCGCGUAGGCUUCGCUACUGGCUUCUACUACGUACCCAAACCC; test: ITC; conditions: 0.25 mM K+, 20 mM Na+, 5 mM Mg2+; 1x CSB (40 mM HEPES pH 7.4), 25 °C; 30 µM RNA, 500 µM LFX; one-site model
# [12] = test system: M3 (RNA, aptamer) GGGUUUGGGUAGUGCGAUUCGCACUGAAGCCGCGUAGGCUUCGCUACUGGCUUCUACUACGUACCCAAACCC; test: ITC; conditions: 0.25 mM K+, 20 mM Na+, 5 mM Mg2+; 1x CSB (40 mM HEPES pH 7.4), 25 °C; 30 µM RNA, 500 µM LFX in syringe
# [13] = test system: M4 (RNA, aptamer) GGGUUUGGGUAGUGCGAUUCGCACUGAAUGCCGGUAGGCUUCGCUACUGGCUUCUACUACGUACCCAAACCC; test: ITC; conditions: 0.25 mM K+, 20 mM Na+, 5 mM Mg2+; 1x CSB (40 mM HEPES pH 7.4), 25 °C; 30 µM RNA, 500 µM LFX in syringe
# [14] = test system: M5 (RNA, aptamer) GGGUUUGGGUAGUUUCGACUGAAUGCCGCGUAGGCUUCGCUACUGGCUUCUACUACGUACCCAAACCC; test: ITC; conditions: 0.25 mM K+, 20 mM Na+, 5 mM Mg2+; 1x CSB (40 mM HEPES pH 7.4), 25 °C; 30 µM RNA, 500 µM LFX in syringe
# [15] = test system: M6 (RNA, aptamer) GGGUUUGGGUAGCGAUUCGCUGAAUGCCGCGUAGGCUUCGCUACUGGCUUCUACUACGUACCCAAACCC; test: ITC; conditions: 0.25 mM K+, 20 mM Na+, 5 mM Mg2+; 1x CSB (40 mM HEPES pH 7.4), 25 °C; 30 µM RNA, 500 µM LFX in syringe
# [16] = test system: M7 (RNA, aptamer) GGGUUUGGGUAUGAAUGCCGCGUAGGCUUCGCUACUGGCUUCUACUACGUACCCAAACCC; test: ITC; conditions: 0.25 mM K+, 20 mM Na+, 5 mM Mg2+; 1x CSB (40 mM HEPES pH 7.4), 25 °C; 30 µM RNA, 500 µM LFX in syringe
# [17] = test system: M10 (RNA, aptamer) GGGUUUGGGUAGUGCGAUUCGCACUGAAUGCCGCGUAGUUCGCUACUGGCUUCUACUACGUACCCAAACCC; test: ITC; conditions: 0.25 mM K+, 20 mM Na+, 5 mM Mg2+; 1x CSB (40 mM HEPES pH 7.4), 25 °C; 30 µM RNA, 500 µM LFX in syringe
# [18] = test system: M11 (RNA, aptamer) GGGUUUGGGUAGUGCGAUUCGCACUGAAUGCUUCGGCUUCUACUACGUACCCAAACCC; test: ITC; conditions: 0.25 mM K+, 20 mM Na+, 5 mM Mg2+; 1x CSB (40 mM HEPES pH 7.4), 25 °C; 30 µM RNA, 500 µM LFX in syringe
# [19] = test system: M12 (RNA, aptamer) GGGUUUGGGUGAAUGCCGCGUAGGCUUCGCUACUGGCUUCUACUACGUACCCAAACCC; test: ITC; conditions: 0.25 mM K+, 20 mM Na+, 5 mM Mg2+; 1x CSB (40 mM HEPES pH 7.4), 25 °C; 30 µM RNA, 500 µM LFX in syringe
# [20] = test system: M13 (RNA, aptamer) GGGUUUGGGUAGAAUGCCGCGUAGGCUUCGCUACUGGCUUCUACUACGUACCCAAACCC; test: ITC; conditions: 0.25 mM K+, 20 mM Na+, 5 mM Mg2+; 1x CSB (40 mM HEPES pH 7.4), 25 °C; 30 µM RNA, 500 µM LFX in syringe
# [21] = test system: M14 (RNA, aptamer) GGGCGCACUGAAUGCCGCGUAGGCUUCGCUACUGGCUUCUACUACGUAUAGUGCGCCC; test: ITC; conditions: 0.25 mM K+, 20 mM Na+, 5 mM Mg2+; 1x CSB (40 mM HEPES pH 7.4), 25 °C; 30 µM RNA, 500 µM LFX in syringe
# [22] = test system: LxA1 (RNA, aptamer) GGGCAACUCCAAGCUAGAUCUACCGGUUUUUUCAGGCGGCUUAAAAACCAGGAAAGGUGGAGACUUCUACUGGCUUCUAUCCAGCCGGUAAAAUGGCUAGCAAAGGAGAAGAACUUUUCACU; test: elution from immobilised Capture-ON; conditions: 0.25 mM K+, 20 mM Na+, 5 mM Mg2+; 1x CSB (40 mM HEPES pH 7.4); 1 mM LFX; DNA Capture-ON displaced
# [23] = test system: LxA2 (RNA, aptamer) GGGCAACUCCAAGCUAGAUCUACCGGUUUUUUCUGGCGGCUUAAAAACCAGGAAAGGUGGAGACUUCUACUGGCUUCUAUCCAGCCGGUAAAAUGGCUAGCAAAGGAGAAGAACUUUUCACU; test: elution from immobilised Capture-ON; conditions: 0.25 mM K+, 20 mM Na+, 5 mM Mg2+; 1x CSB (40 mM HEPES pH 7.4); 1 mM LFX; DNA Capture-ON displaced
# [24] = test system: LxE (RNA, aptamer) GGGCAACUCCAAGCUAGAUCUACCGGUCGUAGUGGACCUGUUUAGGUUUGCAUACGUUAGAUGUCUUCUACUGGCUUCUAAAUCGAACCGAAAAUGGCUAGCAAAGGAGAAGAACUUUUCACU; test: elution from immobilised Capture-ON; conditions: 0.25 mM K+, 20 mM Na+, 5 mM Mg2+; 1x CSB (40 mM HEPES pH 7.4); 1 mM LFX; DNA Capture-ON displaced
# [25] = test system: LxF (RNA, aptamer) GGGCAACUCCAAGCUAGAUCUACCGGUGCAGGUCUGGGAACUCGUUCCCGGCUCCAGCUGGAUUCUUCUACUGGCUUCUAGCCCGACCGGAAAAUGGCUAGCAAAGGAGAAGAACUUUUCACU; test: elution from immobilised Capture-ON; conditions: 0.25 mM K+, 20 mM Na+, 5 mM Mg2+; 1x CSB (40 mM HEPES pH 7.4); 1 mM LFX; DNA Capture-ON displaced
structure (smiles),measurement,setting,value
O=C(O)c1cn(C2CC2)c2cc(N3CCNCC3)c(F)cc2c1=O,binding,"[1]; 1 mM CFX, LFX/CFX elution ratio 3.2",weak
same,binding,"[2]; 1 mM CFX, LFX/CFX elution ratio 2.2",weak
same,binding,"[3]; 1 mM CFX, LFX/CFX elution ratio 2.1",weak
same,binding,"[4]; 1 mM CFX, LFX/CFX elution ratio 2.6",weak
same,binding,[5]; up to 5000 µM,weak
C[C@H]1COc2c(N3CCN(C)CC3)c(F)cc3c(=O)c(C(=O)O)cn1c23,Kd,[6],6 µM
same,Kd,[7],6 µM
same,Kd,[8],5 ± 6 µM
same,Kd,[9],4 ± 1 µM
same,Kd,[10],6 ± 3 µM
same,Kd,[11],3 ± 3 µM
same,binding,[12],no
same,binding,[13],no
same,binding,[14],no
same,binding,[15],no
same,binding,[16],no
same,binding,[17],no
same,binding,[18],no
same,binding,[19],no
same,binding,[20],no
same,binding,[21],no
same,fraction eluted,[1]; 1 mM LFX,27.4%
same,binding,[22],yes
same,binding,[23],yes
same,binding,[2]; 1 mM LFX,yes
same,binding,[3]; 1 mM LFX,yes
same,fraction eluted,[4]; 1 mM LFX,47.3%
same,binding,[24],yes
same,binding,[25],yes
same,binding,[5]; signal at 100 µM and above,yes
